From US20070059242A1, “METHODS TO IDENTIFY THERAPEUTIC AGENTS” (priority 2005, published 2007)

Tests used:
[1] = test system: leukocyte cell lines; experiment: Cytotoxicity to leukocyte cell lines (similar procedures); format: cell-based
Protocol: (§1) Cytotoxicity assays. WI-L2 human B-lymphocyte line, HAAE-1 human abdominal aortic endothelial line, MH-S murine alveolar macrophage line, and J774A.1 murine tissue macrophage line were obtained from the ATCC. Human aortic endothelial cells (HAEC) and human vascular smooth muscle cells (VSMS) were obtained from Cambrex Bio Science. Jurkat E6-1T-lymphocytes were kindly provided by Dr. J. Kaye (The Scripps Research Institute). Cells were cultured in ATCC-recommended media with 10% fetal calf serum. Cells were incubated in a controlled atmosphere at 37° C., with 5 or 7% CO2. For lactate dehydrogenase (LDH) release assays, adherent cells were harvested either by addition of 0.05% trypsin/EDTA or by scraping. The cells obtained were seeded onto 96-well microtiter plates (25,000 cells/well) and allowed to recover for 24-48 h. Cells were washed gently and media replaced with fresh media containing 5% fetal calf serum. […] Cytotoxicity was then determined by measuring lactate dehydrogenase (LDH) release from cells in culture. […] 100% Cytotoxicity was defined as the maximum amount of LDH released by dead cells as shown by trypan blue exclusion, or the highest amount of LDH detected upon lysis of cells by 0.9% Triton X-100. The IC50 values were determined by comparison of the raw duplicate data for concentration versus cytotoxicity (%) to non-linear regression analysis (Hill plot) using Graphpad v3.0 software for Macintosh.

[2] = test system: THP-1 monocytes; experiment: Monocyte morphology changes (differentiation into macrophages); format: cell-based, human; conditions: 12.5 or 25 μM, 7 days
Protocol: THP-1 monocytes in suspension were plated in 8-well chambered slides. […] Media containing appropriate treatment compounds was replaced after 4 days. […]

[3] = test system: J774A.1 macrophages; experiment: Uptake and localization in macrophages by fluorescence microscopy; format: cell-based, murine; conditions: 50 μM dansyl derivative, 5 min to 1 h; not complexed with LDL
Protocol: J774A.1 cells were plated in 8-well chambered slides (Nalge Nunc International). Cells were gently washed twice with PBS, pH 7.4 before 5 min or 1 h exposure to 50 μM dansyl derivative of cholesterol ozonation product 5d or 5e, dansyl cholesterol derivative 9c or 9d, or dansyl hydrazine diluted in media without FCS (0.05% v/v final DMSO concentration). [drawing 28] Media was removed by aspiration and cells were fixed immediately in 95% ice cold methanol for 5 min. Cells were mounted in glycerol containing Antifade reagent (Molecular Probes). Fluorescence images were documented using DeltaVision Deconvolution microscope (API, Issaquah WA) equipped with a Photometrics CH350L liquid cooled CCD camera attached to an Olympus IX—70 inverted microscope. […] All images were deconvolved using constrained iterative algorithms (10 iterations) of DeltaVision software (softWoRx, v2.5). The deconvolved images were subsequently processed using softWoRx, v2.5.
In some experiments, murine macrophage RAW 264.7 (ECACC 91062702) cells were grown in RPMI (Gibco) with 10% FCS at 37° C. with 5% CO2. For fluorescence imaging, cells were incubated on cover slips in 6-well chambered plates (Costar) for 12 h, gently washed 3 times in PBS at pH 7.4, and incubated with 50 μM dansyl derivative of cholesterol ozonation product 5d or 5e, dansyl cholesterol derivative 9c or 9d, in RPMI with 10% FCS for 5, 15, 30, and 60 min. A solution of the dansyl derivative was then added in DMSO [final DMSO, 0.05% (v/v)]. Media was removed by aspiration, and cells were washed twice with PBS, followed by fixing in paraformaldehyde (3.7% in PBS) for 10 min. Cover slips were mounted in MOWIOL 4-88 (Calbiochem). Microscopy was performed using an inverted Zeiss Axioscope 2 Plus fluorescence microscope, and images were obtained with a Zeiss Axiocam digital camera using Axiovision software (version 3.1). The data were collected using a 63× oil immersion lens and DAPI filter (excitation 360/emission 460), and images were processed with Axiovision software and Adobe software (Photoshop 6.0).

[4] = test system: VCAM-1; experiment: Endothelial adhesion molecule expression ELISA, VCAM-1; format: cell-based, human; conditions: HAAE-1, not complexed with LDL
Protocol: (§2) Endothelial cell surface adhesion molecule expression was measured by ELISA, using anti-human CD54 (ICAM-1), CD106 (VCAM-1) and CD62E (E-Selectin) antibodies (Leinco Technologies, Inc., St. Louis, Mo.). The ELISA method was modified from previously described procedures.
(§3) Cells were then incubated with antibodies to VCAM-1, E-selectin, or ICAM-1 diluted 1:400 in PBS containing 5% FCS at 37° C. for 30 min. Wells were washed two times with PBS, then incubated with horseradish peroxidase (HRP)-conjugated goat anti-mouse IgG (Southern Biotechnology Associates, Birmingham, Ala., USA) in PBS/5% FCS at 37° C. for 30 min. The wells were washed four times with PBS, then incubated with H2O2/3,3′,5,5′-tetramethyl-benzidine peroxidase substrate (Pierce Chemical, Rockford, Ill., USA) for 30 min in the dark. The reaction was stopped by adding 25 μl of 8 N H2SO4, and the plates read on a microplate reader, blanking on wells stained with only secondary antibody. Each assay was performed in triplicate and the data are reported as the mean±SEM as a percentage of the expression level of the vehicle. To study the effect of cholesterol ozonation product 5a concentration (5-50 μM) on E-selectin expression, the assay was performed in an identical fashion as described above, with each point being the mean±SEM of at least duplicate measurements.

[5] = test system: ICAM-1; experiment: Endothelial adhesion molecule expression ELISA, ICAM-1; format: cell-based, human; conditions: HAAE-1, not complexed with LDL
Protocol: as §2, §3

[6] = test system: T-lymphocyte cell line (Jurkat E6.1); experiment: LDH release cytotoxicity assay, Jurkat; format: cell-based; conditions: T-cell (Jurkat) cell line, concentration range of FIG. 6B
Protocol: as §1, with “h.” for “h. Cells were washed gently and media replaced with fresh media containing 5% fetal calf serum.”, “Macintosh. […]” for “Macintosh.”

[7] = test system: WI-L2 human B-lymphocyte line; experiment: LDH release cytotoxicity assay, WI-L2; format: cell-based; conditions: B-cell (WI-L2) cell line, concentration range of FIG. 6A
Protocol: as §1
The following cell lines were employed in this study: a human B-lymphocyte (WI-L2) described in Levy et al., Cancer 22, 517 (1968); a T-lymphocyte cell line (Jurkat E6.1) described in Weiss et al., J. Immunol. 133, 123 (1984); a vascular smooth muscle cell line (VSMC) and an abdominal aorta endothelial (HAEC) cell line described in Folkman et al., Proc. Natl. Acad. Sci. U.S.A. 76, 5217 (1979); a murine tissue macrophage (J774A.1) described in Ralph et al., J. Exp. Med. 143, 1528 (1976); and an alveolar macrophage cell line (MH-S) described in Mbawuike et al., J. Leukoc. Biol. 46, 119 (1989).

[8] = test system: E-selectin; experiment: Endothelial adhesion molecule expression ELISA, E-selectin; format: cell-based, human; conditions: HAAE-1, not complexed with LDL
Protocol: as §2, §3

`CC(C)CCC[C@@H](C)[C@H]1CCC2C(CC=O)C([C@@]3(C)CCC=CC3=O)CC[C@@]21C` (stereo partly drawn) [6a, 5-Oxo-5,6-secocholest-3-en-6-al] was tested, and the “cytotoxic to leukocyte cell lines” value [1] was “cytotoxic”.
For `CC(C)CCC[C@@H](C)[C@H]1CC[C@H]2[C@@H]3C(=O)C=C4C[C@@H](O)CC[C@]4(C)[C@H]3CC[C@]12C` [7-KC, 7-ketocholesterol, reference compound], the “THP-1 cell adherence (differentiation into macrophages)” value [2] was “began to adhere after 4 days”.
With `C[C@H](CCCC(=O)NS(=O)(=O)c1cccc2c(N(C)C)cccc12)[C@H]1CCC2C3C(CC[C@@]21C)C1(C)CC[C@H](O)CC1(O)[C@@H]3C=O` (stereo partly drawn) [5e] the “uptake and localization in macrophages” value [3] was “initial punctate cytosolic accumulation”.
`CC(C)CCC[C@@H](C)[C@H]1CCC2C3C(CC[C@@]21C)[C@@]1(C)CCC=C[C@@]1(O)[C@@H]3CO` (stereo partly drawn) [7c] was tested, and the “cytotoxic to leukocyte cell lines” value [1] was “cytotoxic”.
`C[C@H](CCCC(=O)NS(=O)(=O)c1cccc2c(N(C)C)cccc12)[C@H]1CCC2C3CC=C4C[C@@H](O)CCC4(C)C3CC[C@@]21C` (stereo partly drawn) [9d, reference compound] was tested, and the “uptake and localization in macrophages” value [3] was “minimal fluorescence”.
For `CC(C)CCC[C@@H](C)[C@H]1CCC2C3C(CC[C@@]21C)[C@@]1(C)CCC=C[C@@]1(O)[C@@H]3C=O` (stereo partly drawn) [7a, 5β-Hydroxy-B-norcholest-3-ene-6β-carboxaldehyde], the “cytotoxic to leukocyte cell lines” value [1] was “cytotoxic”.
In the case of `CC(C)CCC[C@@H](C)[C@H]1CCC2[C@H](CC=O)C([C@@]3(C)CCCCC(=O)O3)CC[C@@]21C` (stereo partly drawn) [11a], the “cytotoxic to leukocyte cell lines” value [1] is reported as “cytotoxic”.
`CC(C)CCC[C@@H](C)[C@H]1CC[C@H]2[C@@H]3CC=C4C[C@@H](O)CC[C@]4(C)[C@H]3CC[C@]12C` [compound 3, cholesterol, reference compound] was tested, and the “integrin (VCAM-1) expression” value [4] was “no effects”, the “THP-1 cell adherence (differentiation into macrophages)” value [2] was “induced no cell adherence” and the “integrin (ICAM-1) expression” value [5] was “no effects”. The cytotoxicity [6] was “No cytotoxicity”, the cytotoxicity [7] was “No cytotoxicity” and the “selectin (E-selectin) expression” value [8] was “no effects”.
In the case of `CC(C)CCC[C@@H](C)[C@H]1CCC2[C@H](CC(=O)O)C([C@@]3(C)CC[C@H](O)CC3=O)CC[C@@]21C` (stereo partly drawn) [10a], the “cytotoxic to leukocyte cell lines” value [1] is reported as “cytotoxic”.
For `CC(C)CCC[C@@H](C)[C@H]1CCC2C3C(C=O)=C4C=CCC[C@]4(C)C3CC[C@@]21C` (stereo partly drawn) [12a, B-norcholest-3,5-diene-6-carboxaldehyde], the “cytotoxic to leukocyte cell lines” value [1] was “cytotoxic”.
